The structures appear in SMILES notation. Where a name gives a salt, the structure may show the parent alone.

One experiment deals with HIV wild type (WTRVA). Briefly: HeLa cell assay, wild type virus (WTRVA). The format is cell-based, HIV-1. On the set-up: scale not given here. The conditions noted are these: Human immunodeficiency virus 1, HeLa, HeLa cell assay; read-out: IC50 against WTRVA.
`Cc1cc(C#N)cc(Oc2c(Cl)ccc(CNC(=O)c3[nH]c(C)nc3Br)c2F)c1` [Example 146, 4-bromo-N-({4-chloro-3-[(3-cyano-5-methylphenyl)oxy]-2-fluorophenyl}methyl)-2-methyl-1H-imidazole-5-carboxamide]: the IC50 was < 0.01 µM.
The same measure, in the same setting: then `N#Cc1cc(CC2CC2)cc(Oc2c(Cl)ccc(CNC(=O)c3[nH]cnc3Cl)c2F)c1` [Example 157, 4-chloro-N-[(4-chloro-3-{[3-cyano-5-(cyclopropylmethyl)phenyl]oxy}-2-fluorophenyl)methyl]-1H-imidazole-5-carboxamide], with < 0.01 µM.
On the same count and under the same terms, then `N#Cc1cc(Oc2c(Cl)ccc(CNC(=O)c3[nH]cnc3Br)c2F)cc(C(F)(F)F)c1` [Example 286, 4-bromo-N-[(4-chloro-3-{[3-cyano-5-(trifluoromethyl)phenyl]oxy}-2-fluorophenyl)methyl]-1H-imidazole-5-carboxamide], with < 0.01 µM; and `N#Cc1cc(Cl)cc(Oc2c(C(F)F)ccc(CNC(=O)c3[nH]cnc3Cl)c2F)c1` [Example 252, 4-chloro-N-{[3-[(3-chloro-5-cyanophenyl)oxy]-4-(difluoromethyl)-2-fluorophenyl]methyl}-1H-imidazole-5-carboxamide], with < 0.01 µM.
Still for that read-out and setting: as for `N#Cc1cc(Cl)cc(Oc2c(Cl)ccc(CNC(=O)c3[nH]c(N)nc3Cl)c2F)c1` [Example 230, 2-amino-4-chloro-N-({4-chloro-3-[(3-chloro-5-cyanophenyl)oxy]-2-fluorophenyl}methyl)-1H-imidazole-5-carboxamide trifluoroacetate], the figure is < 0.01 µM; as for `N#Cc1cc(Oc2c(Cl)ccc(CNC(=O)c3[nH]cnc3Br)c2F)cc(C(F)F)c1` [Example 375, 4-bromo-N-[(4-chloro-3-{[3-cyano-5-(difluoromethyl)phenyl]oxy}-2-fluorophenyl)methyl]-1H-imidazole-5-carboxamide], < 0.01 µM; as for `Cc1nc(Cl)c(C(=O)NCc2ccc(Br)c(Oc3cc(Cl)cc(C#N)c3)c2F)[nH]1` [Example 231, N-({4-bromo-3-[(3-chloro-5-cyanophenyl)oxy]-2-fluorophenyl}methyl)-4-chloro-2-methyl-1H-imidazole-5-carboxamide trifluoroacetate], < 0.01 µM.
In the case of `C[C@@H](O)C#Cc1cc(Cl)cc(Oc2c(Cl)ccc(CNC(=O)c3[nH]cnc3Cl)c2F)c1` [Example 319, 4-chloro-N-{[4-chloro-3-({3-chloro-5-[(3R)-3-hydroxy-1-butyn-1-yl]phenyl}oxy)-2-fluorophenyl]methyl}-1H-imidazole-5-carboxamide], the IC50 was < 0.01 µM.
The same measure, in the same setting: then `C=Cc1ccc(CNC(=O)c2[nH]c(C)nc2Cl)c(F)c1Oc1cc(Cl)cc(C#N)c1` [Example 269, 4-Chloro-N-({3-[(3-chloro-5-cyanophenyl)oxy]-4-ethenyl-2-fluorophenyl}methyl)-2-methyl-1H-imidazole-5-carboxamide], with < 0.01 µM.
For `Cc1nc(Cl)c(C(=O)NCc2ccc(Cl)c(Oc3cc(C#N)cc(C4CC4)n3)c2F)[nH]1` [Example 273, 4-Chloro-N-({4-chloro-3-[(4-cyano-6-cyclopropyl-2-pyridinyl)oxy]-2-fluorophenyl}methyl)-2-methyl-1H-imidazole-5-carboxamide], the IC50 is < 0.01 µM.
The same measure, in the same setting: as for `CCCc1cc(C#N)cc(Oc2c(Cl)ccc(CNC(=O)c3[nH]cnc3Cl)c2F)c1` [Example 151, 4-chloro-N-({4-chloro-3-[(3-cyano-5-propylphenyl)oxy]-2-fluorophenyl}methyl)-1H-imidazole-5-carboxamide], the figure is < 0.01 µM.

Staying with this experiment, now noted: Human immunodeficiency virus 1, HeLa, HeLa-CD4-LTR-β-gal cells, wild type virus; read-out: WTRVA activity level.
With `CN(Cc1ccc(Cl)c(Oc2cc(Cl)cc(C#N)c2)c1F)C(=O)c1[nH]cnc1Cl` [Example 132, 4-chloro-N-({4-chloro-3-[(3-chloro-5-cyanophenyl)oxy]-2-fluorophenyl}methyl)-N-methyl-1′-imidazole-5-carboxamide trifluoroacetate], the IC50 is < 0.01 µM.
Same read-out and setting: then `N#Cc1cc(Cl)cc(Oc2c(Cl)ccc(CNC(=O)c3cc4cc(F)ccc4[nH]3)c2F)c1` [Example 41, N-({4-chloro-3-[(3-chloro-5-cyanophenyl)oxy]-2-fluorophenyl}methyl)-5-fluoro-1H-indole-2-carboxamide], with 0.01 to 1 µM; and `N#Cc1cc(Cl)cc(Oc2c(Cl)ccc(CNC(=O)c3ccc(S(N)(=O)=O)cc3Cl)c2F)c1` [Example 14, 4-(aminosulfonyl)-2-chloro-N-({4-chloro-3-[(3-chloro-5-cyanophenyl)oxy]-2-fluorophenyl}methyl)benzamide], with 0.01 to 1 µM.
Same read-out and setting: as for `N#Cc1cc(Cl)cc(Oc2c(Cl)ccc(CNC(=O)c3ccno3)c2F)c1` [Example 93, N-({4-chloro-3-[(3-chloro-5-cyanophenyl)oxy]-2-fluorophenyl}methyl)-5-isoxazolecarboxamide], the figure is 0.01 to 1 µM.
Same read-out and setting: then `N#Cc1cc(Cl)cc(Oc2c(Cl)ccc(CNC(=O)c3cc4cc(Br)ccc4[nH]3)c2F)c1` [Example 29, 5-bromo-N-({4-chloro-3-[(3-chloro-5-cyanophenyl)oxy]-2-fluorophenyl}methyl)-1H-indole-2-carboxamide], with 0.01 to 1 µM; and `N#Cc1cc(Cl)cc(Oc2c(Cl)ccc(CNC(=O)c3cc4cc(NC(=O)CN)ccc4[nH]3)c2F)c1` [Example 120, N-({4-chloro-3-[(3-chloro-5-cyanophenyl)oxy]-2-fluorophenyl}methyl)-5-(glycylamino)-1H-indole-2-carboxamide trifluoroacetate], with < 0.01 µM.
On to `N#Cc1cc(Cl)cc(Oc2c(Cl)ccc(CNC(=O)c3cc4cc(N(CC5CC5)CC5CC5)ccc4[nH]3)c2F)c1` [Example 127, 5-[bis(cyclopropylmethyl)amino]-N-({4-chloro-3-[(3-chloro-5-cyanophenyl)oxy]-2-fluorophenyl}methyl)-1H-indole-2-carboxamide], for which the IC50 lay within 0.01 to 1 µM.
Turning to `CS(=O)(=O)c1cc(F)cc2cc(C(=O)NCc3ccc(Cl)c(Oc4cc(Cl)cc(C#N)c4)c3F)[nH]c12` [Example 33, N-({4-chloro-3-[(3-chloro-5-cyanophenyl)oxy]-2-fluorophenyl}methyl)-5-fluoro-7-(methylsulfonyl)-1H-indole-2-carboxamide], the IC50 lay within 0.01 to 1 µM.
`CN(C)c1ccc2[nH]c(C(=O)NCc3ccc(Cl)c(Oc4cc(Cl)cc(C#N)c4)c3F)cc2c1` [Example 126, N-({4-chloro-3-[(3-chloro-5-cyanophenyl)oxy]-2-fluorophenyl}methyl)-5-(dimethylamino)-1H-indole-2-carboxamide]: the IC50 is < 0.01 µM.
The same measure, in the same setting: then `N#Cc1cc(Cl)cc(Oc2c(Cl)ccc(CNC(=O)c3ccccn3)c2F)c1` [Example 85, N-({4-chloro-3-[(3-chloro-5-cyanophenyl)oxy]-2-fluorophenyl}methyl)-2], with < 0.01 µM; and `CCCCc1nc(Cl)c(C(=O)NCc2ccc(Cl)c(Oc3cc(Cl)cc(C#N)c3)c2F)[nH]1` [Example 140, 2-butyl-4-chloro-N-({4-chloro-3-[(3-chloro-5-cyanophenyl)oxy]-2-fluorophenyl}methyl)-1H-imidazole-5-carboxamide trifluoroacetate], with < 0.01 µM.
Still for that read-out and setting: then `N#Cc1cc(Cl)cc(Oc2c(Cl)ccc(CNC(=O)c3cc4cc(OCC[C@H](O)CO)ccc4[nH]3)c2F)c1` [Example 107, N-({4-chloro-3-[(3-chloro-5-cyanophenyl)oxy]-2-fluorophenyl}methyl)-5-{[(3S)-3,4-dihydroxybutyl]oxy}-1H-indole-2-carboxamide], with < 0.01 µM; and `Cc1cc(Br)cc2cc(C(=O)NCc3ccc(Cl)c(Oc4cc(Cl)cc(C#N)c4)c3F)[nH]c12` [Example 30, 5-bromo-N-({4-chloro-3-[(3-chloro-5-cyanophenyl)oxy]-2-fluorophenyl}methyl)-7-methyl-1H-indole-2-carboxamide], with 0.01 to 1 µM.
On the same count and under the same terms, then `CC(C)c1nc(Cl)c(C(=O)NCc2ccc(Cl)c(Oc3cc(Cl)cc(C#N)c3)c2F)[nH]1` [Example 135, 4-chloro-N-({4-chloro-3-[(3-chloro-5-cyanophenyl)oxy]-2-fluorophenyl}methyl)-2-(1-methylethyl)-1H-imidazole-5-carboxamide trifluoroacetate], with < 0.01 µM; and `N#Cc1cc(Cl)cc(Oc2c(Cl)ccc(CNC(=O)c3cc4cc(OCC(CO)CO)ccc4[nH]3)c2F)c1` [Example 22, N-({4-chloro-3-[(3-chloro-5-cyanophenyl)oxy]-2-fluorophenyl}methyl)-5-{[3-hydroxy-2-(hydroxymethyl)propyl]oxy}-1H-indole-2-carboxamide], with < 0.01 µM; and `CN(C)CCCOc1ccc2[nH]c(C(=O)NCc3ccc(Cl)c(Oc4cc(Cl)cc(C#N)c4)c3F)cc2c1` [Example 102, N-({4-chloro-3-[(3-chloro-5-cyanophenyl)oxy]-2-fluorophenyl}methyl)-5-{[3-(dimethylamino)propyl]oxy}-1H-indole-2-carboxamide], with < 0.01 µM.
For `Cc1nc(Cl)c(C(=O)NCc2ccc(Cl)c(Oc3cc(Cl)cc(C#N)c3)c2F)[nH]1` [Example 137, 4-chloro-N-({4-chloro-3-[(3-chloro-5-cyanophenyl)oxy]-2-fluorophenyl}methyl)-2-methyl-1H-imidazole-5-carboxamide], the IC50 was < 0.01 µM.
For `CS(=O)(=O)c1ccc(C(=O)NCc2ccc(Cl)c(Oc3cc(Cl)cc(C#N)c3)c2F)c(Cl)c1` [Example 16, 2-chloro-N-({4-chloro-3-[(3-chloro-5-cyanophenyl)oxy]-2-fluorophenyl}methyl)-4-(methylsulfonyl)benzamide], the IC50 is 0.01 to 1 µM.
Consider `Cc1c(C(=O)NCc2ccc(Cl)c(Oc3cc(Cl)cc(C#N)c3)c2F)oc2ccccc12` [Example 48, N-({4-chloro-3-[(3-chloro-5-cyanophenyl)oxy]-2-fluorophenyl}methyl)-3-methyl-1-benzofuran-2-carboxamide trifluoroacetate], for which the IC50 is 0.01 to 1 µM.
The same measure, in the same setting: as for `COc1n[n+]([O-])cc2cc(C(=O)NCc3ccc(Cl)c(Oc4cc(Cl)cc(C#N)c4)c3F)[nH]c12` [Example 82, N-({4-chloro-3-[(3-chloro-5-cyanophenyl)oxy]-2-fluorophenyl}methyl)-7-(methyloxy)-1H-pyrrolo[2,3-d]pyridazine-2-carboxamide 5-oxide trifluoroacetate], the figure is 0.01 to 1 µM.

For the origin of these results see patent US8304419B2, “Chemical compounds” (priority 2007, dated 2012).
